The values that follow come from US20010041801A1, “Water soluble fullerenes with antiviral activity” (The Regents of the University of California, priority 1994, published 2001).

In one data set the target is T1, HIV-1 protease (HIVP) (Human immunodeficiency virus type 1 group M subtype B, UniProt P04585).
T1 construct: HIV produces a small, dimeric aspartyl protease which specifically cleaves the polyprotein precursors
The data set is described as follows: Inhibition of HIV-1 protease, HPLC assay with kinetic analysis. The data set is classed as biochemical. Particulars: 50 mM NaAc pH 5.5, 1.0 M NaCl; 5 min preincubation; fit to competitive inhibition; read-out: Ki. Here is the method:
The ability of compound 2c to inhibit the HIVP was assayed with an HPLC method as described in R. L DesJarlais, et al., Proc. Natl. Acad. Sci U.S.A., 87:6644-6648, 1990. […] Assays were performed in buffer containing 50 mM NaAc pH 5.5, 1.0 M NaCl, 5% glycerol, 1% DMSO, and 2 mM EDTA. Inhibitor was preincubated with ≈0.05 μg of enzyme for 5 minutes at which time the reaction was initiated by addition of substrate. The reaction was quenched at <15% product formation by the addition of 15 μL of 10% TFA. The cleavage products of the substrate peptide H-Lys-Ala-Arg-Val-Tyr-p-nitro-Phe-Glu-Ala-Ile-NH2 (made by Bachem, Philadelphia, Pa.) were assayed by HPLC using a 10-40% (acetonitrile, 0.1% TFA): (water, 0.1% TFA) gradient over 30 minutes at 1 mL/minute. Product was quantitated by integration of peak areas followed by comparison to product standard curves.
Determination of kinetic constants was done with the program KinetAsyst (IntelliKinetics) by fitting of the data to the equation […]] which describes competitive inhibition.

The subject of data set [1] is nevirapine (BI-RG587)-resistant HIV-1. Description: Susceptibility of nevirapine-resistant HIV-1. The data set is classed as cell-based.
Data set [2] is described as follows: Cytotoxicity in Vero cells. Format: cell-based. Particulars: African green monkey, Vero cells; day 3.
A further data set in a line: Cytotoxicity in H9 cells. The data set is classed as cell-based, human. Particulars: human, H9 cells; cell counts on day 6.
Another data set has as its system HIV-1G910-6. The data set is described as follows: microbe, parasite or virus in culture. The data set is classed as cell-based. The source says: (§1) The availability of AZT-resistant and -susceptible viruses allowed us to evaluate the compounds of this invention for their susceptibilities to these viruses in acutely infected PBMC in two experiments. […] In the same assay, the EC50 for TIBO [(+)-(5s)-4,5,6,7-tetrahydro-5methyl-6-(3-methyl-2-butenyl)imidazo(4,5,1-jk)(1,4)benzodiazepin-2(1 H)-thione] R82150 increased >500-fold (data not shown).

The test system of the next data set is HIV-1 HI 12.2. Description: Susceptibility of pretherapy AZT-susceptible isolate in acutely infected PBMC. The data set is classed as cell-based. The following applies: Human immunodeficiency virus 1, PBMC, read-out: EC50 against pretherapy isolate.
Source text: as §1

The next data set has as its system HIV-1 LAI. The data set is described as follows: Antiviral activity in acutely infected human PBMC, virus RT level. Format: cell-based. Particulars: acutely infected, virus RT level on day 6, read-out: Antiviral Activity (EC50) in PBMC infected with HIVLAI. Here is the method:
(§2) Compound 2c was evaluated for antiviral activity in cells acutely and chronically infected with human immunodeficiency virus (HIV). Reverse transcriptase (RT) levels associated with virus were determined with virus concentrated from cell culture supernatants by high-speed centrifugation to reduce the chances of drug carryover in the enzyme assay using the method described in R. F. Schinazi, et al., Antimicrob. Agents Chemother., 36:2423-2431, 1992.

The test system of another data set is HIV-2ROD. The data set is described as above. Format: cell-based. The following applies: acutely infected, virus RT level on day 6, read-out: Antiviral Activity (EC50) in PBMC infected with HIV-2ROD. The procedure:
as §2

Data set [3] can be described thus: Cytotoxicity in CEM cells. Format: cell-based. The following applies: human, CEM cells; cell counts on day 6.
In another data set the target is HIV-1 RT (Human immunodeficiency virus type 1 group M subtype B, UniProt P04585). The data set is described as follows: Inhibition of recombinant p66/51 HIV-1 RT, poly(rA)n.oligo(T)12-18 template-primer. Particulars: cell-free; AZT-5′-triphosphate used for AZT; read-out: IC50 Polymerases: HIV-1 RT. Format: biochemical. The procedure: The compound was also evaluated for its inhibitory effect on recombinant p66/51 HIV-1 RT by using poly(rA)n.oligo(T)12-18 as the template-primer as described in Schinazi, et al. (1992, supra). Compound 2c was active against this enzyme, with a median inhibitory concentration (1C50) of 4.6 μM. This value was of the same order of magnitude as that noted for the antiviral assays (TABLE 3). […] AZT-5′ triphosphate and phosphonoformate (PFA), used as positive controls, were effective and selective against HIV-1 RT.

Another data set relates to HIV-1III. Description: Antiviral activity in chronically infected H9 cells, virus RT level. The data set is classed as cell-based. Here is the method:
as §2

A further data set addresses DNA polymerase α (Homo sapiens, UniProt P09884). Description: Inhibition of cellular DNA polymerase α, cell-free. Format: biochemical. Particulars: AZT-5′-triphosphate used for AZT, read-out: IC50 Polymerases: DNA Polymerase α.
The nature of data set [4]: Cytotoxicity in uninfected PBMC. The data set is classed as cell-based, human. The following applies: human, uninfected PBMC; thymidine uptake day 2 and cell counts day 6.
Another data set in a line: Solubility in water. The following applies: physiologic pH, generally between pH 6 and 8.
Another data set concerns Vero cells. Description: Cytotoxicity in Vero cells. Format: cell-based. Particulars: day 3.
For a further data set, the system named is CEM cells. The data set is described as follows: Cytotoxicity in CEM cells. Format: cell-based. Particulars: cell counts on day 6.
Another data set concerns PBMC. Description: Cytotoxicity in uninfected PBMC. The data set is classed as cell-based, human. Particulars: thymidine uptake day 2 and cell counts day 6.

As a reminder, the Ki is a dissociation constant, usually derived from enzyme kinetics or from competition with a known ligand. As usually defined, the IC50 is the concentration at which inhibition is half-maximal.

Where two headings read alike, the source gives them in different places. Bounds are passed on as bounds.

DNA polymerase α, sequence (P09884 whole entry): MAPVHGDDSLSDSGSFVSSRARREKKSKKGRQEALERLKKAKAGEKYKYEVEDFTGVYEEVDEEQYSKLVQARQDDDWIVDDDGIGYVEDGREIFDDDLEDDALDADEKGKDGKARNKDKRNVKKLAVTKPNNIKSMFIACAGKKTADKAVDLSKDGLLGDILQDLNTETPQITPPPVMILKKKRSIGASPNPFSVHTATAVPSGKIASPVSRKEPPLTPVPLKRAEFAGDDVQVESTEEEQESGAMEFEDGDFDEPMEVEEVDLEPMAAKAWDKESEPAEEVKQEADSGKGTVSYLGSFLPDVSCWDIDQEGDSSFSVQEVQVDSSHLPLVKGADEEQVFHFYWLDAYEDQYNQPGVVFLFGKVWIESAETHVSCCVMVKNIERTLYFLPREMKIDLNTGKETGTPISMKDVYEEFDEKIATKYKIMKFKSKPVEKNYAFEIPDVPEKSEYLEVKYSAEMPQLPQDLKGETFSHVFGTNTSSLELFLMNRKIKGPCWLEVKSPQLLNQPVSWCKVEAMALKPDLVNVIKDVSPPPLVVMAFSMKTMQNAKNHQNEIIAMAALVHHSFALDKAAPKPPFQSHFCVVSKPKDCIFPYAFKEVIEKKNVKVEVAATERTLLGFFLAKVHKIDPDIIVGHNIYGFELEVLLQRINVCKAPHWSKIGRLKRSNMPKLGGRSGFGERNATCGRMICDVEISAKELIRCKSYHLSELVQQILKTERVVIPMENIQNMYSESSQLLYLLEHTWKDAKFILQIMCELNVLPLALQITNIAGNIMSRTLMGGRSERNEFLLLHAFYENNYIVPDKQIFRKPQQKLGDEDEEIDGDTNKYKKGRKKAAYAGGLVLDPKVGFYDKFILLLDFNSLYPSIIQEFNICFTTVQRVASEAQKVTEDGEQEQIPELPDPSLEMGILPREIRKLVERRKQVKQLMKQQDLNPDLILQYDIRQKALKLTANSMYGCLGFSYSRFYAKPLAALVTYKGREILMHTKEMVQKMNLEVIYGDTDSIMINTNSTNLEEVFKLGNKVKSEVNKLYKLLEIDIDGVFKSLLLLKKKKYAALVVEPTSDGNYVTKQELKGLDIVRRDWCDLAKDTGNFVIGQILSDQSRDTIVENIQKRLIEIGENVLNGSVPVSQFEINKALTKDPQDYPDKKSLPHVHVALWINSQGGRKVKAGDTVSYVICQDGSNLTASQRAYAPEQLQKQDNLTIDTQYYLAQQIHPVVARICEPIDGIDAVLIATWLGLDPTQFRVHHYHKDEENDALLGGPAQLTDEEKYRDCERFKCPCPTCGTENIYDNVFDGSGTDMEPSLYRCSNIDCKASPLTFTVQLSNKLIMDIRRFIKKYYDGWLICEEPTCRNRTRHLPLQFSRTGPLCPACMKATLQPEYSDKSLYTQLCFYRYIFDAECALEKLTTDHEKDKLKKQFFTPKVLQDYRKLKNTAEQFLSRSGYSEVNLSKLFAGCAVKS
DNA polymerase α, sequence (Q14181 whole entry partner): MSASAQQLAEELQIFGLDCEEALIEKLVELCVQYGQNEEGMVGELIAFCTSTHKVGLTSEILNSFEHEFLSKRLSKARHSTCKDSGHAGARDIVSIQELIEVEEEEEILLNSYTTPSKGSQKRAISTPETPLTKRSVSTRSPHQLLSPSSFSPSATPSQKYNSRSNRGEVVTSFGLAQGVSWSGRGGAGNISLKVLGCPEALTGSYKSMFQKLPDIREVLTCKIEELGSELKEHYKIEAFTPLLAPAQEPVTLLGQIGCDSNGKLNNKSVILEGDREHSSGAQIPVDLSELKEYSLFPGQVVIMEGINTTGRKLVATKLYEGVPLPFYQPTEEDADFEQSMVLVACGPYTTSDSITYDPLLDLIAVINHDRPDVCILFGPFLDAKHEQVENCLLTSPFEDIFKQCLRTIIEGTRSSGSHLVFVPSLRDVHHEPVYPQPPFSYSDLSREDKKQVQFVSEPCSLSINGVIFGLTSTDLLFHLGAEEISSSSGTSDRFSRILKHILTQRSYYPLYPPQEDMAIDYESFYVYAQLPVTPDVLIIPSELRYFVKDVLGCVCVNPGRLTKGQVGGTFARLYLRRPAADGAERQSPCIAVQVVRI
DNA polymerase α, sequence (P49642 whole entry partner): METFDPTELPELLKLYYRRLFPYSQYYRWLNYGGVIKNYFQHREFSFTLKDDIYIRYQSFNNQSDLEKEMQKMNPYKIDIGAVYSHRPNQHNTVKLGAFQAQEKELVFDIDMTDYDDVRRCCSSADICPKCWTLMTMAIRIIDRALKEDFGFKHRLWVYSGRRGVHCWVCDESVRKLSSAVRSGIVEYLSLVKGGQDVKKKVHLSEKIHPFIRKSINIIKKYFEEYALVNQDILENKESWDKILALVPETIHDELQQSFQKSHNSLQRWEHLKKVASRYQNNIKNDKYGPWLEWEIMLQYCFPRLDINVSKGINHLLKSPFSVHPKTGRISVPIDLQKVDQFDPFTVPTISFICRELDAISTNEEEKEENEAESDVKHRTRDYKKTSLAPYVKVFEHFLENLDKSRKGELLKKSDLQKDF
DNA polymerase α, sequence (P49643 whole entry partner): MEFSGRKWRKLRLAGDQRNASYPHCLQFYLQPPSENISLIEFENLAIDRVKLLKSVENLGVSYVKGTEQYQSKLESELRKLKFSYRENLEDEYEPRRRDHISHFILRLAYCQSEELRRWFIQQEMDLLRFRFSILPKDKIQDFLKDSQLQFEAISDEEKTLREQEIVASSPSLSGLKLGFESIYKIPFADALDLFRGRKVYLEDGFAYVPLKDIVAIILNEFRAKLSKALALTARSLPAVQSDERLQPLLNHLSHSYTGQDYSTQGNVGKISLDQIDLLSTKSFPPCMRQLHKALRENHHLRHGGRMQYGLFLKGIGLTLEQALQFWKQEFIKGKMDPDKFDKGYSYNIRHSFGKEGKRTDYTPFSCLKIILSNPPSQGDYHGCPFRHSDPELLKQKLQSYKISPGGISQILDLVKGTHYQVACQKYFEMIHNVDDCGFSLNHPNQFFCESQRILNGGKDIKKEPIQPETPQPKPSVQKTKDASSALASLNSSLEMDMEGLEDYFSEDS

Turning to `NCCc1ccc(C2(c3ccc(CCN)cc3)C34c5c6c7c8c9c%10c(c%11c%12c3c3c5c5c%13c6c6c7c7c9c9c%14c%10c%10c%11c%11c%12c%12c3c3c5c5c%13c%13c6c6c7c9c7c9c%14c%10c%10c%11c%11c%12c3c3c5c5c%13c6c7c6c9c%10c%11c3c56)C824)cc1` [Compound 2b, 4,4′-Bis(2-aminoethyl)diphenyl C61], the Ki at HIV-1 protease (HIVP) was approximately 2000 nM.

As for `CC(C)=CCN1Cc2cccc3[nH]c(=S)n(c23)C[C@@H]1C` [TIBO R82150, (+)-(5s)-4,5,6,7-tetrahydro-5methyl-6-(3-methyl-2-butenyl)imidazo(4,5,1-jk)(1,4)benzodiazepin-2(1 H)-thione, reference compound], the “increase in resistance, nevirapine-resistant vs -susceptible HIV-1” value in data set [1] is recorded as more than 500 fold.

In data set [2], `Cc1cn([C@H]2C[C@H](N=[N+]=[N-])[C@@H](CO)O2)c(=O)[nH]c1=O` [AZT, 3′-Azido-3′-deoxythymidine, reference compound] registered an IC50 at 3 days of 23 µM. Further, the IC50 at 6 days in the data set “Cytotoxicity in H9 cells” stood at 60 µM; in data set [3], 13 µM. Further, the EC50 in the data set with HIV-1G910-6 (Human immunodeficiency virus 1, PBMC, read-out: EC50 against AZT-resistant HIV-1, acutely infected PBMC / lymphocytes) was 180 nM; in the data set on HIV-1 HI 12.2, less than 1 nM; with HIV-1 LAI (Human immunodeficiency virus 1, PBMC, 144 h), 4 nM; in the data set on HIV-2ROD (Human immunodeficiency virus 2, PBMC, 144 h), 3 nM; in the data set on HIV-1III (Human immunodeficiency virus 1, H9, 144 h, chronically infected, virus RT level after 6 days of treatment, read-out: Antiviral Activity (EC50) in H9 cells infected with HIV-1III), more than 100 µM. For the same compound, the “increase of EC50, AZT-resistant vs pretherapy virus” value with HIV-1G910-6 (virus pair HIV-1 HI 12.2 / HIV-1G910-6) is given as “more than 180 fold”. In addition, the IC50 on HIV-1 RT was 40 nM; at DNA polymerase α it was more than 100 µM; in data set [4], more than 100 µM. Moreover, the “effect in chronically infected H9 cells” value in the data set with HIV-1III is given as “no effect”.

On to “4,4′-Bis(2-aminoethyl)diphenyl C61 [hydrochloride salt of compound 2b]”, for which, in the data set “Solubility in water”, the “water solubility” value is “not to be soluble”.

In the case of `O=C(O)P(=O)(O)O` [PFA, phosphonoformate, reference compound], the IC50 is more than 100 µM in the data set on Vero cells; more than 100 µM in the data set with CEM cells; 320 nM at HIV-1 RT; more than 100 µM at DNA polymerase α; more than 640 µM in the data set with PBMC. Besides, the EC50 in the data set on HIV-1 LAI was 430 nM; in the data set on HIV-2ROD, 440 nM.
